Experimental data reported in US9884063B2, “Amido-substituted azole compounds” (Bayer Pharma Aktiengesellschaft, priority 2014, dated 2018).

What follows are compounds tested against T1, TNKS1 (Homo sapiens, UniProt O95271) (assay: Modified TNKS1 Assay 3 (BPS kit #80573, biotin-NAD+, 96 well)). Conditions: human TNKS1, BPS kit #80573, 96 well.
T1 sequence (O95271 1-1327): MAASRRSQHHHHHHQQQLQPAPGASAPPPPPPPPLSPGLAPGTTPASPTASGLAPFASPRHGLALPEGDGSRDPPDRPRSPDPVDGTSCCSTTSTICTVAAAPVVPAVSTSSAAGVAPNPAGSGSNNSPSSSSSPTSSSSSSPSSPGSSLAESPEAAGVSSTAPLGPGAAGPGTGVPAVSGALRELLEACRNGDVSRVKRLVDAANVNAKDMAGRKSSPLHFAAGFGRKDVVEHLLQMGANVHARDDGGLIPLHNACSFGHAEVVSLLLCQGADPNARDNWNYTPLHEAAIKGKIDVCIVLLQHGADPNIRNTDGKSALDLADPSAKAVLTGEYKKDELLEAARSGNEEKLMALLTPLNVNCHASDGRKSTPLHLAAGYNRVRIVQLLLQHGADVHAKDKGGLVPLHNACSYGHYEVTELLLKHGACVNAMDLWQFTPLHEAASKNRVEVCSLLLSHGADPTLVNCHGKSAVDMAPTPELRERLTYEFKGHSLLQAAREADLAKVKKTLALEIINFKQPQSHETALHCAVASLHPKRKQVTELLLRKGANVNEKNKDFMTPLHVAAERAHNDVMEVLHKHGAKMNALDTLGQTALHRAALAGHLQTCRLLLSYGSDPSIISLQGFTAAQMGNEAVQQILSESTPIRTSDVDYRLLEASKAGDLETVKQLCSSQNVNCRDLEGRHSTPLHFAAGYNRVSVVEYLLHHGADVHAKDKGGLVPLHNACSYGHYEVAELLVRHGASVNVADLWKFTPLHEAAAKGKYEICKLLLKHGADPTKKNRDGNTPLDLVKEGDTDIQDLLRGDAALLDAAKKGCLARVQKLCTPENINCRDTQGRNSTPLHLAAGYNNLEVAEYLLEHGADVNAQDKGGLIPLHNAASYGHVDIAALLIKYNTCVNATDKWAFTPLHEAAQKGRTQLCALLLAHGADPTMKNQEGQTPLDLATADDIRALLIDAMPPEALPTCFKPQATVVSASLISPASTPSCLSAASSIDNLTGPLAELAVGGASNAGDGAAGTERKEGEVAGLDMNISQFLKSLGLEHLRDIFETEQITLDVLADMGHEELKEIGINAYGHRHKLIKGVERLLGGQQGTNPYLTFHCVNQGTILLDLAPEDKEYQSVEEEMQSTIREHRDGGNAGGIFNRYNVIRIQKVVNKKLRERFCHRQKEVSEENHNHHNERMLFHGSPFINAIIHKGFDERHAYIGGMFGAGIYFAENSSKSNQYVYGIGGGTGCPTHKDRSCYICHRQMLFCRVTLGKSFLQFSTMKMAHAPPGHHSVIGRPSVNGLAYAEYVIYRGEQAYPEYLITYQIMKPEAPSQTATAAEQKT
Type: biochemical
Experimental: The potency of the compounds against human TNKS1 according to the invention was assessed using a commercially available biotin/streptavidin binding assay kits from BPS Bioscience, San Diego, USA (Catalog #80573 for TNKS1). The incorporation of a biotin-labeled NAD+ during the […] catalyzed ribosylation of a suitable protein substrate was detected using with a streptavidin-HRP coupled chemi-luminescent readout. The intensity of the readout signal is proportional to the incorporated NAD^+. Inhibition of TNKS1 leads to a decreased incorporation of NAD^+ and consequently to a lower readout signal intensity in the corresponding TNKS1 assays. The concentration of a test compound that inhibits the enzyme activity by 50% (corresponds to half of the normed readout signal intensity) is reported as IC50. The assay was conducted in a 96 well MTP format according to the manufacturer's protocol and using a BMG Pherastar MTP reader [BMG-Labtech, Offenburg, Germany].

IC50 | Structure (SMILES)
150 nM | CNC(=O)c1nc[nH]c1C(=O)Nc1ccc(NC(=O)c2ccc(C)cc2Cl)cc1 [Example 244, N^5-{4-[(2-chloro-4-methylbenzoyl)amino]phenyl}-N^4-methyl-1H-imidazole-4,5-dicarboxamide]
> 500 nM | CNC(=O)c1nc[nH]c1C(=O)Nc1ccc(NC(=O)c2c(F)cc(F)cc2Cl)cc1 [Example 118, N^5-{4-[(2-chloro-4,6-difluorobenzoyl)amino]phenyl}-N^4-methyl-1H-imidazole-4,5-dicarboxamide]
260 nM | CNC(=O)c1nc[nH]c1C(=O)Nc1ccc(NC(=O)c2ccc(F)cc2Cl)cc1 [Example 12, N^5-{4-[(2-chloro-4-fluorobenzoyl)amino]phenyl}-N^4-methyl-1H-imidazole-4,5-dicarboxamide]
380 nM | CNC(=O)c1nc[nH]c1C(=O)Nc1ccc(NC(=O)c2cc(F)c(F)cc2Cl)cc1 [Example 242, N^5-{4-[(2-chloro-4,5-difluorobenzoyl)amino]phenyl}-N^4-methyl-1H-imidazole-4,5-dicarboxamide]
2 nM | CC1CCN(CCNC(=O)c2nc[nH]c2C(=O)Nc2ccc(NC(=O)c3ccc(F)cc3Cl)cc2)CC1 [Example 126, N^5-{4-[(2-chloro-4-fluorobenzoyl)amino]phenyl}-N^4-[2-(4-methylpiperidin-1-yl)ethyl]-1H-imidazole-4,5-dicarboxamide]
> 500 nM | NC(=O)c1nc[nH]c1C(=O)Nc1ccc(NC(=O)c2ccc(F)cc2Cl)cc1 [Example 121]
430 nM | O=C(Nc1ccc(NC(=O)c2nc[nH]c2C(=O)NC2CCOC2)cc1)c1ccc(F)cc1Cl (centres unmarked) [Example 236, N^4-{4-[(2-chloro-4-fluorobenzoyl)amino]phenyl}-N^5-(tetrahydrofuran-3-yl)-1H-imidazole-4,5-dicarboxamide]
40 nM | O=C(Nc1ccc(NC(=O)c2nc[nH]c2C(=O)NCCN2CCCC(F)C2)cc1)c1ccc(F)cc1Cl (centres unmarked) [Example 226, N^4-{4-[(2-chloro-4-fluorobenzoyl)amino]phenyl}-N^5-[2-(3-fluoropiperidin-1-yl)ethyl]-1H-imidazole-4,5-dicarboxamide]

More lines, now with the values behind:

Structure (SMILES) | IC50
COCCNC(=O)c1[nH]cnc1C(=O)Nc1ccc(NC(=O)c2ccc(F)cc2Cl)cc1 [Example 130, N^4-{4-[(2-chloro-4-fluorobenzoyl)amino]phenyl}-N^5-(2-methoxyethyl)-1H-imidazole-4,5-dicarboxamide] | 150 nM
CNC(=O)c1nc[nH]c1C(=O)Nc1ccc(NC(=O)c2ccc(F)cc2Cl)nc1 [Example 16, N^5-{6-[(2-chloro-4-fluorobenzoyl)amino]pyridin-3-yl}-N^4-methyl-1H-imidazole-4,5-dicarboxamide] | 130 nM
O=C(Nc1ccc(NC(=O)c2[nH]cnc2C(=O)NCC(F)(F)F)cc1)c1ccc(F)cc1Cl [Example 30, N^4-{4-[(2-chloro-4-fluorobenzoyl)amino]phenyl}-N^5-(2,2,2-trifluoroethyl)-1H-imidazole-4,5-dicarboxamide] | 400 nM
O=C(Nc1ccc(NC(=O)c2nc[nH]c2C(=O)NCCN2CCCCC2)cc1)c1ccc(F)cc1Br [Example 216, N^4-{4-[(2-bromo-4-fluorobenzoyl)amino]phenyl}-N^5-[2-(piperidin-1-yl)ethyl]-1H-imidazole-4,5-dicarboxamide] | 3 nM
CNC(=O)c1nc[nH]c1C(=O)Nc1ccc(NC(=O)c2cc(OC)c(OC)cc2Cl)cc1 [Example 240, N^5-{4-[(2-chloro-4,5-dimethoxybenzoyl)amino]phenyl}-N^4-methyl-1H-imidazole-4,5-dicarboxamide] | 20 nM
CC1CCCN(CCNC(=O)c2[nH]cnc2C(=O)Nc2ccc(NC(=O)c3ccc(F)cc3Cl)cc2)C1 (centres unmarked) [Example 208, N^4-{4-[(2-chloro-4-fluorobenzoyl)amino]phenyl}-N^5-[2-(3-methylpiperidin-1-yl)ethyl]-1H-imidazole-4,5-dicarboxamide] | 40 nM
